Data taken from ChEMBL document CHEMBL1201862, “PubChem BioAssay data set” (2004).
Values joined by “and” are separate entries in the source; they are usually repeats but may differ in a detail not shown here. Identical values can stand only once.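 Assay format: 96-well plates, 48-hour exposure. Here, GI50 denotes the concentration required for 50% inhibition of growth.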 Active and inactive are the calls of the source. Rule as the data show it: active = GI50 up to about 1.1 µM and inactive = higher.

How the values were obtained:
Assay in all cases: DTP human tumour cell line panel, 48 h
786-0 = system: 786-0
BT-549 = system: BT-549
CAKI-1 = system: CAKI-1
HCC 2998 = system: HCC 2998
HCT-15 = system: HCT-15
Hs-578T = system: Hs-578T
K562 = system: K562
KM12 = system: KM12
M14 = system: M14
MCF7 = system: MCF7
OVCAR-4 = system: OVCAR-4
PC-3 = system: PC-3
RPMI-8226 = system: RPMI-8226
RXF 393 = system: RXF 393
SK-MEL-5 = system: SK-MEL-5
SK-OV-3 = system: SK-OV-3
UO-31 = system: UO-31
A498 = system: A498
HL-60 = system: HL-60
NCI-H522 = system: NCI-H522

Row | SMILES | GI50 (786-0) | GI50 (BT-549) | GI50 (CAKI-1) | GI50 (HCC 2998) | GI50 (HCT-15) | GI50 (Hs-578T) | GI50 (K562) | GI50 (KM12) | GI50 (M14) | GI50 (MCF7) | GI50 (OVCAR-4) | GI50 (PC-3) | GI50 (RPMI-8226) | GI50 (RXF 393) | GI50 (SK-MEL-5) | GI50 (SK-OV-3) | GI50 (UO-31) | GI50 (A498) | GI50 (HL-60) | GI50 (NCI-H522)
1 | COC1OC(COC(=O)NCCCCC(=O)C(F)(F)C(F)(F)C(F)(F)C(F)(F)C(F)(F)C(F)(F)C(F)(F)F)C(O)C(O)C1O (stereo not drawn) | 16.4 µM (inactive) and 16.5 µM (inactive) | 17.6 µM (inactive) and 17.4 µM (inactive) | 16.4 µM (inactive) and 17.2 µM (inactive) | 19.6 µM (inactive) and 19.5 µM (inactive) | 18.5 µM and 19.4 µM | 15.2 µM (inactive) and 17.7 µM (inactive) | 10.6 µM (inactive) and 16 µM (inactive) | 17.5 µM (inactive) and 18.7 µM (inactive) | 14.8 µM (inactive) and 16 µM (inactive) | 17.6 µM (inactive) and 18.4 µM (inactive) | 15 µM (inactive) and 16.7 µM (inactive) | 12.9 µM (inactive) and 13.6 µM (inactive) | 28.9 µM (inactive) and 29.9 µM (inactive) | 13.6 µM (inactive) and 15.1 µM (inactive) | 13.1 µM (inactive) and 12 µM (inactive) | 14.2 µM (inactive) and 15.8 µM (inactive) | 16.8 µM (inactive) and 17.1 µM (inactive) | – | – | –
2 | CC1=NN2C=Nc3c(c(-c4ccc(Cl)cc4)cn3-c3ccc(C)cc3)C2N1 (stereo not drawn) | 19.5 µM (inactive) | > 100 µM (inactive) | 97.3 µM (inactive) | > 100 µM (inactive) | > 100 µM | 11.3 µM (inactive) | > 100 µM (inactive) | – | > 100 µM (inactive) | > 100 µM (inactive) | 6.24 µM (inactive) | 32.9 µM (inactive) | – | 42.5 µM (inactive) | 87.9 µM (inactive) | 61.9 µM (inactive) | > 100 µM (inactive) | > 100 µM (inactive) | > 100 µM (inactive) | > 100 µM (inactive)
3 | COc1ccc(/C=C/c2nsc(/C=C/c3ccc(OC)cc3)n2)cc1 | 21.8 µM (inactive) | > 100 µM (inactive) | > 100 µM (inactive) | – | 52.1 µM | > 100 µM (inactive) | 33.3 µM (inactive) | > 100 µM (inactive) | > 100 µM (inactive) | > 100 µM (inactive) | > 100 µM (inactive) | 48.5 µM (inactive) | 28.7 µM (inactive) | > 100 µM (inactive) | > 100 µM (inactive) | > 100 µM (inactive) | > 100 µM (inactive) | > 100 µM (inactive) | 24.8 µM (inactive) | 39.6 µM (inactive)
4 | C[C@@H]1CC[C@@H](C)[C@](C)(CCc2ccoc2)C/C=C\C=C/1C(=O)O | > 50 µM (inactive) | > 50 µM (inactive) | > 50 µM (inactive) | > 50 µM (inactive) | > 50 µM | > 50 µM (inactive) | > 50 µM (inactive) | > 50 µM (inactive) | > 50 µM (inactive) | > 50 µM (inactive) | > 50 µM (inactive) | > 50 µM (inactive) | – | > 50 µM (inactive) | > 50 µM (inactive) | > 50 µM (inactive) | > 50 µM (inactive) | > 50 µM (inactive) | 15.3 µM (inactive) | –
5 | Oc1ccc2cc(Br)ccc2c1-c1c(O)ccc2ccc(Br)cc12 | 13.8 µM (inactive) | 14.7 µM (inactive) | 18.8 µM (inactive) | 6.52 µM (inactive) | 14.9 µM | 11.9 µM (inactive) | 18.5 µM (inactive) | 6.84 µM (inactive) | 17.8 µM (inactive) | 13 µM (inactive) | – | 12.6 µM (inactive) | – | – | 23 µM (inactive) | 12.2 µM (inactive) | 15.3 µM (inactive) | 17.3 µM (inactive) | 5.42 µM (inactive) | 15.2 µM (inactive)
6 | O=C1CC2CCC(C1)[S+]2[O-] (stereo not drawn) | > 100 µM (inactive) | > 100 µM (inactive) | > 100 µM (inactive) | > 100 µM (inactive) | > 100 µM | > 100 µM (inactive) | > 100 µM (inactive) | > 100 µM (inactive) | > 100 µM (inactive) | > 100 µM (inactive) | > 100 µM (inactive) | > 100 µM (inactive) | > 100 µM (inactive) | > 100 µM (inactive) | > 100 µM (inactive) | > 100 µM (inactive) | > 100 µM (inactive) | – | > 100 µM (inactive) | > 100 µM (inactive)
7 | CC(c1ccccc1)n1cncc1C(=O)NN1CCN(C)CC1 (stereo not drawn) | > 10 µM (inactive) | > 10 µM (inactive) | > 10 µM (inactive) | – | > 10 µM | > 10 µM (inactive) | > 10 µM (inactive) | > 10 µM (inactive) | > 10 µM (inactive) | > 10 µM (inactive) | > 10 µM (inactive) | > 10 µM (inactive) | > 10 µM (inactive) | > 10 µM (inactive) | > 10 µM (inactive) | > 10 µM (inactive) | – | > 10 µM (inactive) | > 10 µM (inactive) | > 10 µM (inactive)
8 | COc1cccc(Nc2nc(-c3cccs3)nc3cc(OC)c(OC)cc23)c1 | 21.9 µM (inactive) | 25.9 µM (inactive) | 29 µM (inactive) | – | 26.6 µM | 27.4 µM (inactive) | 37.1 µM (inactive) | 30.4 µM (inactive) | 35.2 µM (inactive) | 24.5 µM (inactive) | 41.3 µM (inactive) | 27.9 µM (inactive) | 13.2 µM (inactive) | – | 25.4 µM (inactive) | 53 µM (inactive) | 51.8 µM (inactive) | 18.9 µM (inactive) | 42.1 µM (inactive) | 18.9 µM (inactive)
9 | COc1cc(-c2nc3ccccn3c2/N=C/c2cc(Br)cc(Br)c2O)ccc1O | 18 µM (inactive) | 20.3 µM (inactive) | 29.2 µM (inactive) | 79.6 µM (inactive) | 19 µM | 26.1 µM (inactive) | 28.6 µM (inactive) | 24.2 µM (inactive) | 18.2 µM (inactive) | 22.3 µM (inactive) | 19.4 µM (inactive) | 22.6 µM (inactive) | 24.7 µM (inactive) | 32.9 µM (inactive) | 25.5 µM (inactive) | 23.9 µM (inactive) | 13.7 µM (inactive) | – | 18.2 µM (inactive) | 23.2 µM (inactive)
10 | CC(=O)OC1CC2(C)C(=CC1C1SCCS1)CCC1C2CCC2(C)C(OC(C)=O)CCC12 (stereo not drawn) | > 100 µM (inactive) | > 100 µM (inactive) | > 100 µM (inactive) | – | > 100 µM | 14.6 µM (inactive) | > 100 µM (inactive) | > 100 µM (inactive) | > 100 µM (inactive) | 68.4 µM (inactive) | > 100 µM (inactive) | > 100 µM (inactive) | > 100 µM (inactive) | 19.3 µM (inactive) | > 100 µM (inactive) | 27.9 µM (inactive) | > 100 µM (inactive) | 70 µM (inactive) | > 100 µM (inactive) | 37 µM (inactive)
11 | S=c1cc(-c2ccc3c(c2)OCO3)s[nH]1 | > 100 µM (inactive) | > 100 µM (inactive) | > 100 µM (inactive) | – | > 100 µM | > 100 µM (inactive) | > 100 µM (inactive) | > 100 µM (inactive) | > 100 µM (inactive) | > 100 µM (inactive) | > 100 µM (inactive) | > 100 µM (inactive) | > 100 µM (inactive) | > 100 µM (inactive) | > 100 µM (inactive) | > 100 µM (inactive) | > 100 µM (inactive) | 46.6 µM (inactive) | > 100 µM (inactive) | 5.81 µM (inactive)
12 | CSCCCNC(=O)c1csc(-c2csc(CCNC(=O)CNC(=O)OC(C)(C)C)n2)n1 | > 100 µM (inactive) | 35.4 µM (inactive) | > 100 µM (inactive) | > 100 µM (inactive) | > 100 µM | > 100 µM (inactive) | > 100 µM (inactive) | > 100 µM (inactive) | > 100 µM (inactive) | 46.6 µM (inactive) | > 100 µM (inactive) | > 100 µM (inactive) | – | > 100 µM (inactive) | 47.4 µM (inactive) | > 100 µM (inactive) | > 100 µM (inactive) | > 100 µM (inactive) | – | > 100 µM (inactive)
13 | OC(Cc1cccc2ccccc12)CN1CCC(c2ccccc2)CC1 (stereo not drawn) | 15 µM (inactive) | 16.8 µM (inactive) | 11.1 µM (inactive) | 2.56 µM (inactive) | 14.5 µM | 15.8 µM (inactive) | 12.5 µM (inactive) | 14.8 µM (inactive) | 13.8 µM (inactive) | 17.3 µM (inactive) | – | 14.5 µM (inactive) | 8.13 µM (inactive) | 10.2 µM (inactive) | 12.1 µM (inactive) | 17.5 µM (inactive) | 0.0241 µM (active) | – | 16.7 µM (inactive) | 9.48 µM (inactive)
14 | C=C1C2CCC3C4(C)CCCC(C)(C(=O)O)C4CCC3(C2)C1OC(=O)/C(C)=C/C (stereo not drawn) | 60.7 µM (inactive) | 41.8 µM (inactive) | 26.2 µM (inactive) | 26.7 µM (inactive) | 22.9 µM | 35.2 µM (inactive) | – | 17.3 µM (inactive) | 20.8 µM (inactive) | 32.7 µM (inactive) | 41.6 µM (inactive) | 31.3 µM (inactive) | – | 15.9 µM (inactive) | 27.4 µM (inactive) | 27.5 µM (inactive) | 21 µM (inactive) | 25.3 µM (inactive) | 29.9 µM (inactive) | 31.8 µM (inactive)
15 | Cc1cc2c(cc1Cl)SC(NNCCO)=NS2(=O)=O | > 100 µM (inactive) | > 100 µM (inactive) | > 100 µM (inactive) | > 100 µM (inactive) | > 100 µM | > 100 µM (inactive) | 56.2 µM (inactive) | > 100 µM (inactive) | > 100 µM (inactive) | > 100 µM (inactive) | > 100 µM (inactive) | 86.3 µM (inactive) | > 100 µM (inactive) | > 100 µM (inactive) | 73.1 µM (inactive) | > 100 µM (inactive) | > 100 µM (inactive) | – | > 100 µM (inactive) | –
